Results as given in PMC11259132, “Tyrosine phenol-lyase inhibitor quercetin reduces fecal phenol levels in mice” (PNAS Nexus, 2024).
pKi: −log10 of the molar value. Where two headings read alike, the source gives them in different places.

What was measured:
Type in all cases: biochemical
[1] = target: T1, Tyrosine phenol-lyase (TPL) (Morganella morganii, UniProt J7TAF3); experiment: recombinant TPL assay, phenol by LC-MS; Lineweaver-Burk kinetics
T1 construct: recombinant TPL from M. morganii ssp. morganii (JCM1672), pET-15b

[2] = target: T1, Tyrosine phenol-lyase (TPL)
[3] = target: T2, Tyrosine phenol-lyase (TPL) (Citrobacter koseri, UniProt A8AM34); experiment: recombinant TPL assay at […] inhibitor, phenol by LC-MS
T2 construct: recombinant TPL from C. koseri (JCM1658), pET-15b
T2 sequence (A8AM34 1-465): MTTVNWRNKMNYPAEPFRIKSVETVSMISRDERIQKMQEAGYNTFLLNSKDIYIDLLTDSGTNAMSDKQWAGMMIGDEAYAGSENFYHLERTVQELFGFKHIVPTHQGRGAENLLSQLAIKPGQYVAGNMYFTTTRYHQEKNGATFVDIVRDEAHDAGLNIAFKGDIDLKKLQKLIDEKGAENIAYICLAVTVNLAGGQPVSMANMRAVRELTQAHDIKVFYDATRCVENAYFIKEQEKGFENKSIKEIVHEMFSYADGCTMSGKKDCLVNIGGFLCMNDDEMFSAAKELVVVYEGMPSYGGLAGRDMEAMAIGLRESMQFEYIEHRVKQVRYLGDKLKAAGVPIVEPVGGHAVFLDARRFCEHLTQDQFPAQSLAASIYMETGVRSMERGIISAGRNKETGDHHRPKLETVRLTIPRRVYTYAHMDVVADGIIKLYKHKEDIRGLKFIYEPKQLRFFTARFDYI

T1 sequence (J7TAF3 1-456): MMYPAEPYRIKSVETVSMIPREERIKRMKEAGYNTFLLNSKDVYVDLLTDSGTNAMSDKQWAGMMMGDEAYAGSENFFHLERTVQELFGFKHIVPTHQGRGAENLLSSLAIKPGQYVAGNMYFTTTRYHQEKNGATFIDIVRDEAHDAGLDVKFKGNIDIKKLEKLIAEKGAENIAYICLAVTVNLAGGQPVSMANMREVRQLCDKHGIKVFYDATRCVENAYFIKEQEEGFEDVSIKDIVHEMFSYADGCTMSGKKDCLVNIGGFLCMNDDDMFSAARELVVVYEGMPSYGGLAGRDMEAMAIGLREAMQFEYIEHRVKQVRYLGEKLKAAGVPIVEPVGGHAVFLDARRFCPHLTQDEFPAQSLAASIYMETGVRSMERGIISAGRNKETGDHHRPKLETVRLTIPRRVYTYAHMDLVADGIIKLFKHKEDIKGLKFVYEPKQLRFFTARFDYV

Row | SMILES | recombinant TPL assay at 500 μM inhibitor, phenol by LC-MS [2] | other results
1 | N[C@@H](Cc1ccc(O)cn1)C(=O)O [2-aza-Tyr] | – | pKi ([1]; read-out: Ki): 4.38
2 | O=c1c(O)c(-c2ccc(O)cc2)oc2cc(O)cc(O)c12 [kaempferol] | structural analogs of quercetin, including taxifolin, kaempferol, luteolin, and myricetin, significantly inhibited TPL-catalyzed phenol production | –
3 | O=c1cc(-c2ccc(O)c(O)c2)oc2cc(O)cc(O)c12 [luteolin] | structural analogs of quercetin, including taxifolin, kaempferol, luteolin, and myricetin, significantly inhibited TPL-catalyzed phenol production | –
4 | O=c1c(O)c(-c2ccc(O)c(O)c2)oc2cc(O)cc(O)c12 [quercetin] | – | pKi [1]: 4.70; recombinant TPL assay at 500 μM inhibitor, phenol by LC-MS [3]: The strongest inhibitory activity of quercetin was confirmed using another recombinant TPL isolated from Citrobacter koseri (JCM1658; Fig. 1B)
5 | O=C1c2c(O)cc(O)cc2O[C@H](c2ccc(O)c(O)c2)[C@H]1O [taxifolin] | structural analogs of quercetin, including taxifolin, kaempferol, luteolin, and myricetin, significantly inhibited TPL-catalyzed phenol production | –
